For one compound, Kd results are on record in publication PMC10808224, “Lsr2 acts as a cyclic di-GMP receptor that promotes keto-mycolic acid synthesis and biofilm formation in mycobacteria” (Nature Communications, 2024).

The target in the experiment is T1, Lsr2Msm (Mycolicibacterium smegmatis, UniProt A0R576).
T1 construct: gene MSMEG_6092; recombinant, E. coli BL21 (DE3), modified pET28a, C-terminal His-tag, Ni-NTA purified
The experiment in a line: isothermal titration calorimetry. The format is binding.

Usually Kd stands for the free concentration of one partner at which half of the binding sites on the other are occupied at equilibrium, for simple one-to-one binding. A higher Kd goes with a looser complex. With `Nc1nc2c(ncn2[C@@H]2O[C@@H]3CO[P@](=O)(O)O[C@H]4[C@@H](O)[C@H](n5cnc6c(=O)[nH]c(N)nc65)O[C@@H]4CO[P@](=O)(O)O[C@H]3[C@H]2O)c(=O)[nH]1` [c-di-GMP], the Kd was found to be 96.4 nM.
